PubChem BioAssay (NCI)
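In this assay, cells in 96-well plates receive the compound at five concentrations for 48 hours. Endpoints are linearly interpolated between the surrounding concentrations. TGI: total growth inhibition.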

Tests used:
Test in all cases: growth of human tumour cells (NCI), 48 h
[1] = system: SF-268 CNS
[2] = system: CAKI-1 renal
[3] = system: LOX IMVI melanoma
[4] = system: UO-31 renal
[5] = system: NCI/ADR-RES ovarian
[6] = system: NCI-H226 lung
[7] = system: RXF 393 renal
[8] = system: HOP-62 NSCLC
[9] = system: OVCAR-8 ovarian
[10] = system: K-562 leukemia
[11] = system: UACC-257 melanoma
[12] = system: SK-MEL-2 melanoma
[13] = system: 786-0 renal
[14] = system: A549 NSCLC
[15] = system: NCI-H23 lung
[16] = system: MOLT-4 leukemia
[17] = system: OVCAR-3 ovarian
[18] = system: HCC-2998 colon
[19] = system: HCT-116 colon

Row | Compound | TGI [1] [µM] | TGI [2] [µM] | TGI [3] [µM] | TGI [4] [µM] | TGI [5] [µM] | TGI [6] [µM] | TGI [7] [µM] | TGI [8] [µM] | TGI [9] [µM] | TGI [10] [µM] | TGI [11] [µM] | TGI [12] [µM] | TGI [13] [µM] | TGI [14] [µM] | TGI [15] [µM] | TGI [16] [µM] | TGI [17] [µM] | TGI [18] [µM] | TGI [19] [µM]
1 | CCOC(=O)C(NC(=O)C(CCCCNP(=O)(OCC)OCC)NC(=O)C(C)NC(C)=O)C(C)C (stereo unspecified) | > 100 | > 100 | > 100 | > 100 | > 100 | > 100 | > 100 | > 100 | > 100 | > 100 | > 100 | > 100 | > 100 | > 100 | > 100 | > 100 | > 100 | > 100 | > 100
2 | C/C(=C/c1ccccc1)CN(C(=O)/C=C\Sc1ccccc1)C(C)(C)C | > 38.1 | > 100 | > 100 | > 100 | > 100 | > 100 | > 100 | > 100 | > 100 | > 100 | > 100 | > 100 | > 100 | > 100 | > 100 | > 100 | > 100 | > 100 | > 100
3 | N#CC1(C#N)NC(c2cccnc2)C(C#N)(C#N)NC1c1cccnc1 (stereo unspecified) | > 100 | > 100 | > 100 |  | > 100 | > 100 | > 100 | > 100 | > 100 | > 100 | > 100 | > 100 | > 100 | > 100 | > 100 | > 100 | > 100 | > 100 | > 100
4 | CC1(C)C(C#N)=[N+]([O-])C(C)(C)N1O | > 100 | > 100 | > 100 | > 100 | > 100 | > 100 | > 100 | > 100 | > 100 | > 100 | > 100 | > 100 | > 100 | > 100 | > 100 | > 100 | > 100 | > 100 | > 100
5 | COC(=O)C(Cc1ccccc1)NC(=O)C(CCC(=O)OCc1ccccc1)NC(=O)OC(C)(C)C (stereo unspecified) | > 100 | > 100 | > 100 | > 100 | > 100 | > 100 | > 100 | > 100 | > 100 | > 100 | > 100 | > 100 | > 100 | > 100 | > 100 | > 100 | > 100 | > 100 | > 100
6 | Cc1ccc(/C=N/Nc2nc3ccccc3s2)s1 | > 100 | > 100 | > 100 | > 100 | > 100 | > 100 | > 100 | 89.4 | > 100 | > 100 | > 100 | > 100 | > 100 | > 100 | > 100 | > 100 | > 100 | > 100 | > 100
7 | C1=Nc2ccc(cc2)N=Cc2ccccc2OCc2cccc(n2)COc2ccccc21 |  | > 100 | > 100 | > 100 | > 100 | > 100 | 36.2 | > 100 | > 100 | > 100 | > 100 | > 100 | > 100 | > 100 | > 100 | > 100 | > 100 | > 100 | > 100
8 | COc1ccc(C2=Nn3c(nc4sc(C)c(C)c4c3=O)SC2)cc1 | > 100 | > 100 | > 100 | > 100 | > 100 | > 100 | > 100 | > 100 | > 100 | > 100 | > 100 |  | > 100 | > 100 | > 100 | > 100 | > 100 | > 100 | > 100
9 | CN(C)CCCNC(=O)c1cc(NC(=O)c2cc(NS(=O)(=O)c3ccc4c(c3)C(=O)c3ccccc3C4=O)cn2C)cn1C | > 100 | > 100 | > 100 | > 100 | > 100 | > 100 | > 100 | > 100 | > 100 | > 100 | > 100 | > 100 | > 100 | > 100 | > 100 | > 100 | > 100 | > 100 | > 100
10 | COc1cccc(C(=O)Nc2c3ccccc3nc3ccccc23)c1OC | > 100 | > 100 | > 100 | 14.7 | > 100 | > 100 | 72.2 | > 100 | > 100 | > 100 | > 100 | > 100 | > 100 | > 100 | > 100 | > 100 | > 100 | > 100 | > 100
11 | CC1=C(C#N)C23C(=O)c4ccccc4C(O)=C2C(=O)C=CC3(O)N1 (stereo unspecified) | 26.2 | 23.3 | 18.9 | 7.55 | > 100 | 32 | 9.74 | 51 | > 100 | > 100 | 4.56 | 22.5 | 28.1 | > 100 | 31.9 | > 100 | > 100 | 23 | > 100
12 | CCC(=O)C1(N2CCOCC2)CCN(CCCC(=O)c2ccc(F)cc2)CC1 | > 100 | > 100 | > 100 | > 100 | > 100 | > 100 | > 100 | > 100 | > 100 | > 100 |  | > 100 | > 100 | > 100 | > 100 | > 100 | > 100 | > 100 | > 100
13 | CC1=C(C)CC(C#N)(C#N)C(C#N)(C#N)C1 | > 10 | > 10 | > 10 | > 10 | > 10 | > 10 | > 6.09 | > 10 | > 9.66 | 9.98 | > 10 | > 10 | > 8.08 | > 10 | > 6.63 | > 6.09 | 9.68 | > 10 | > 7.32
14 | Nc1ccc(Oc2ccc(C3(c4ccc(Oc5ccc(N)cc5)cc4)C4CC5C6CC7CC5C3C(C7)C6C4)cc2)cc1 | > 100 | > 100 | > 66.4 | > 100 | > 100 | > 100 | 22.6 | > 100 | > 100 | > 100 | > 100 | > 100 | > 100 | > 100 | > 95.3 | > 100 | > 100 | > 77.9 | > 100
15 | Cc1ccc2nc(N/N=C/c3ccc(C)s3)cc(C)c2c1 | 35.4 | 30.9 | 14.4 |  | 47.2 | 31.7 | 28.3 | 31.3 | 31.3 | > 100 | 19.9 | 35.3 | 11.3 | 21.1 | 22 | 53.4 | 17.4 | 17.3 | 12.3
16 | CC(=O)OCc1ccc2oc(=O)c(C(=O)Oc3cccc(Cl)c3)cc2c1 | > 100 | > 100 | > 100 | 55.4 | > 100 | > 100 | > 100 | > 100 | > 100 | 79.8 | > 100 | > 100 | > 100 | > 100 | > 100 | > 100 | > 100 | 39.3 | 54.5
17 | O=C(NO)c1ccc(OCc2cccc(Cl)c2)cc1 | 38.2 | 37.5 | > 56.6 | 35.6 | > 29.8 | 36 | 47.6 | > 47 | 33.3 | > 31.6 | 46.8 | 70.4 | 19.1 | > 63.8 | 20.9 | > 45.9 | > 64.1 | 24.4 | 14.4
18 | Cc1c(-c2ccccc2)[nH]c2ccc(Cl)cc2c1=O | > 100 | 3.82 | > 100 | 0.507 | > 100 | > 100 | 57.6 | 50.2 | 69.5 | > 100 | > 100 | 87 | > 100 | 0.205 | > 100 | > 100 | 72 | > 100 | 52
19 | Cc1nn2c(=O)c([N+](=O)[O-])c(/C=C/c3ccco3)nc2s1 | > 100 | > 100 | 50.4 | > 100 | > 100 | > 100 | > 100 | > 100 | > 100 | > 100 | > 100 | > 100 | > 100 | > 100 | > 100 | > 100 | > 100 | > 100 | > 100
20 | O=C(/C=C/c1ccc(O)c(O)c1)OCc1ccccc1 | 45.8 | 67.3 | 71.6 | 51.1 | 72.2 | > 100 | 65.4 | 72.4 |  | 61 | 59.1 | 82 | 84.3 | 62.1 | 60.3 | 39.1 | > 100 | > 100 | 30.5
21 | N=c1oc2c(Br)cc(Br)cc2cc1C(=O)Nc1ccccn1 | > 100 | > 100 | > 100 |  | > 100 | > 100 | > 100 | > 100 | > 100 | > 100 | > 100 | 91.8 | > 100 | > 100 | > 100 | > 100 | > 100 | > 100 | > 100
22 | COc1ccc2oc(=Nc3ccccc3)c(C(N)=O)cc2c1 | > 100 | > 100 | > 100 | > 55.6 | > 100 | > 100 | > 100 | 98.4 | > 100 | > 100 | > 100 | > 100 | > 100 | > 100 | > 100 | > 100 | > 100 | > 100 | > 100
